Results taken from patent US12180193B2, “Accelerating fibrosarcoma protein degrading compounds and associated methods of use” (Arvinas Operations, Inc., priority 2020, dated 2024).
Blank lines part the entries; values can stand above or below the molecule they belong to.

What was measured:
BRAF G466V = target: T1, BRAF G466V (Homo sapiens, UniProt P15056, G466V); test: Cellular assay of target protein degradation, T-Rex 293 cells stably transfected with HA-BRAF G466V (HA immunofluorescence, high content imaging); type: cell-based; conditions: T-Rex 293 HA-BRAF G466V; for DC50: half maximal degradation, read-out: BRaf G466V DC50; for Dmax: maximum degradation observed
T1 construct: expressed in transfected cells
T1 sequence (P15056 whole entry G466V): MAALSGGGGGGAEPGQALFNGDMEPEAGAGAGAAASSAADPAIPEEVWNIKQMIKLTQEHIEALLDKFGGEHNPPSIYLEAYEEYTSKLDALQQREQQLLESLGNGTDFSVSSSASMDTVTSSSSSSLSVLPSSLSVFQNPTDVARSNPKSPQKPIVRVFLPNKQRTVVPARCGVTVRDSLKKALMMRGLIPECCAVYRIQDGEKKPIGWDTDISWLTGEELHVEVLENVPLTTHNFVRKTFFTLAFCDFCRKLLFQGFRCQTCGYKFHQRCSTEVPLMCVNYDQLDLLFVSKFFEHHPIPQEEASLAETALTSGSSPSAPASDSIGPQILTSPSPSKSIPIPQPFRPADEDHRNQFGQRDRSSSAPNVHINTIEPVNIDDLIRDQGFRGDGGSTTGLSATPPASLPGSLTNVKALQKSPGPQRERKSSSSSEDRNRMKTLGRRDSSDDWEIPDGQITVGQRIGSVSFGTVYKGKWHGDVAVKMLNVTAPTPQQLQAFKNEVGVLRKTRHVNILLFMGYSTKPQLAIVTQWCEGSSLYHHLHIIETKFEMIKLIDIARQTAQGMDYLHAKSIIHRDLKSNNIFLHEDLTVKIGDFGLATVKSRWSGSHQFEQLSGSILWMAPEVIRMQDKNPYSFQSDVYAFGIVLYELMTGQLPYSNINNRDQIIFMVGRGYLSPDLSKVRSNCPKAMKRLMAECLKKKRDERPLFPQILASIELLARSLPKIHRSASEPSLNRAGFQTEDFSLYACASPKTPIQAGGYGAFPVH
In short: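 HA-BRAF G466V levels were read by HA immunofluorescence and high-content imaging after 24 h compound exposure (final 30 nM–3 pM, 0.1% DMSO, 37 °C). Expression was induced with 0.75 ng/mL doxycycline. Outputs: half-maximal degradation concentration (DC50) and maximal degradation (Dmax) relative to control.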

BRAF V600E = target: T2, BRAF V600E (Homo sapiens, UniProt P15056, V600E); test: Cellular assay of target protein degradation, T-Rex 293 cells stably transfected with HA-BRAF_V600E (HA immunofluorescence, high content imaging); type: cell-based; conditions: T-Rex 293 HA-BRAF V600E; for DC50: half maximal degradation, read-out: BRaf V600E DC50; for Dmax: maximum degradation observed
T2 construct: expressed in transfected cells
T2 sequence (P15056 whole entry V600E): as the sequence (P15056 whole entry G466V) above, with V466G, V600E counted along it
In short: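 HA immunofluorescence on fixed cells, imaged by high-content reader, measured loss of HA-BRAF V600E in stably transfected T-Rex 293 cells induced with 1 ng/mL doxycycline. Compounds were applied for 24 h at 37 °C (final 0.1 nM–1 μM, 0.1% DMSO); DC50 and Dmax (% of control) were reported.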

SMILES: O=C1CCN(c2ccc(N3CCN(CCc4ccc(-c5cnc6[nH]cc(C(=O)c7c(F)ccc(NS(=O)(=O)N8CC[C@@H](F)C8)c7F)c6c5)cc4)CC3)cc2F)C(=O)N1 [Compound 136, (3R)-N-(3-{5-[4-(2-{4-[4-(2,4-dioxo-1,3-diazinan-1-yl)-3-fluorophenyl]piperazin-1-yl}ethyl)phenyl]-1H-pyrrolo[2,3-b]pyridine-3-carbonyl}-2,4-difluorophenyl)-3-fluoropyrrolidine-1-sulfonamide]
- DC50 (BRAF G466V): > 0.03 µM
- DC50 (BRAF V600E): 0.05 to 0.5 µM
- Dmax (BRAF V600E): < 35%

SMILES: O=C1CCC(N2Cc3cc(N4CCC(CCCN5CCN(c6ccc(-c7cnc8[nH]cc(C(=O)c9c(F)ccc(NS(=O)(=O)N%10CC[C@@H](F)C%10)c9F)c8c7)cc6)CC5)CC4)ccc3C2=O)C(=O)N1 (stereo partly drawn) [Compound 137, (3R)-N-[3-(5-{4-[4-(3-{1-[2-(2,6-dioxopiperidin-3-yl)-1-oxo-2,3-dihydro-1H-isoindol-5-yl]piperidin-4-yl}propyl)piperazin-1-yl]phenyl}-1H-pyrrolo[2,3-b]pyridine-3-carbonyl)-2,4-difluorophenyl]-3-fluoropyrrolidine-1-sulfonamide]
- DC50 (BRAF G466V): 0.001 to 0.01 µM
- Dmax (BRAF G466V): > 70%
- DC50 (BRAF V600E): 0.005 to 0.05 µM
- Dmax (BRAF V600E): 35 to 70%

SMILES: O=C1CCC(N2Cc3cc(OCCCOC4CCN(c5ccc(-c6cnc7[nH]cc(C(=O)c8c(F)ccc(NS(=O)(=O)N9CC[C@@H](F)C9)c8F)c7c6)cc5)CC4)ccc3C2=O)C(=O)N1 (stereo partly drawn) [Compound 139, (3R)-N-[3-(5-{4-[4-(3-{[2-(2,6-dioxopiperidin-3-yl)-1-oxo-2,3-dihydro-1H-isoindol-5-yl]oxy}propoxy)piperidin-1-yl]phenyl}-1H-pyrrolo[2,3-b]pyridine-3-carbonyl)-2,4-difluorophenyl]-3-fluoropyrrolidine-1-sulfonamide]
- DC50 (BRAF G466V): 0.001 to 0.01 µM
- Dmax (BRAF G466V): > 70%
- DC50 (BRAF V600E): 0.05 to 0.5 µM
- Dmax (BRAF V600E): 35 to 70%

SMILES: O=C1CCC(N2Cc3cc(CCCN4CC5(C4)CN(c4ccc(-c6cnc7[nH]cc(C(=O)c8c(F)ccc(NS(=O)(=O)N9CC[C@@H](F)C9)c8F)c7c6)cn4)C5)ccc3C2=O)C(=O)N1 (stereo partly drawn) [Compound 141, (3R)-N-(3-{5-[6-(6-{3-[2-(2,6-dioxopiperidin-3-yl)-1-oxo-2,3-dihydro-1H-isoindol-5-yl]propyl}-2,6-diazaspiro[3.3]heptan-2-yl)pyridin-3-yl]-1H-pyrrolo[2,3-b]pyridine-3-carbonyl}-2,4-difluorophenyl)-3-fluoropyrrolidine-1-sulfonamide]
- DC50 (BRAF G466V): 0.001 to 0.01 µM
- Dmax (BRAF G466V): > 70%
- DC50 (BRAF V600E): 0.005 to 0.05 µM
- Dmax (BRAF V600E): 35 to 70%

SMILES: O=C1CCC(N2Cc3cc(N4CCC(O)(CN5CC6(C5)CN(c5ccc(-c7cnc8[nH]cc(C(=O)c9c(F)ccc(NS(=O)(=O)N%10CC[C@@H](F)C%10)c9F)c8c7)cc5)C6)CC4)ccc3C2=O)C(=O)N1 (stereo partly drawn) [Compound 142, (3R)—N-[3-[5-[4-[6-[[1-[2-(2,6-dioxo-3-piperidyl)-1-oxo-isoindolin-5-yl]-4-hydroxy-4-piperidyl]methyl]-2,6-diazaspiro[3.3]heptan-2-yl]phenyl]-1H-pyrrolo[2,3-b]pyridine-3-carbonyl]-2,4-difluoro-phenyl]-3-fluoro-pyrrolidine-1-sulfonamide]
- DC50 (BRAF G466V): 0.001 to 0.01 µM
- Dmax (BRAF G466V): > 70%
- DC50 (BRAF V600E): 0.005 to 0.05 µM
- Dmax (BRAF V600E): 35 to 70%

SMILES: O=C1CCC(N2Cc3cc(N4CCC(COCC5CCN(c6ccc(-c7cnc8[nH]cc(C(=O)c9c(F)ccc(NS(=O)(=O)N%10CC[C@@H](F)C%10)c9F)c8c7)cc6)CC5)CC4)ccc3C2=O)C(=O)N1 (stereo partly drawn) [Compound 143, (3R)-N-{3-[5-(4-{4-[({1-[2-(2,6-dioxopiperidin-3-yl)-1-oxo-2,3-dihydro-1H-isoindol-5-yl]piperidin-4-yl}methoxy)methyl]piperidin-1-yl}phenyl)-1H-pyrrolo[2,3-b]pyridine-3-carbonyl]-2,4-difluorophenyl}-3-fluoropyrrolidine-1-sulfonamide]
- DC50 (BRAF G466V): 0.01 to 0.03 µM
- Dmax (BRAF G466V): 35 to 70%
- DC50 (BRAF V600E): 0.005 to 0.05 µM
- Dmax (BRAF V600E): < 35%

The next lines start with the values.

- DC50 (BRAF G466V): < 0.001 µM
- Dmax (BRAF G466V): > 70%
- DC50 (BRAF V600E): 0.005 to 0.05 µM
- Dmax (BRAF V600E): 35 to 70%
SMILES: COc1cc(N2CC3(CN(CC4CCN(c5ccc(-c6cnc7[nH]cc(C(=O)c8c(F)ccc(NS(=O)(=O)N9CC[C@@H](F)C9)c8F)c7c6)cc5F)CC4)C3)C2)cc2c1C(=O)N(C1CCC(=O)NC1=O)C2 (stereo partly drawn) [Compound 132, (3R)-N-[3-(5-{4-[4-({6-[2-(2,6-dioxopiperidin-3-yl)-7-methoxy-1-oxo-2,3-dihydro-1H-isoindol-5-yl]-2,6-diazaspiro[3.3]heptan-2-yl}methyl)piperidin-1-yl]-3-fluorophenyl}-1H-pyrrolo[2,3-b]pyridine-3-carbonyl)-2,4-difluorophenyl]-3-fluoropyrrolidine-1-sulfonamide]

- DC50 (BRAF G466V): < 0.001 µM
- Dmax (BRAF G466V): > 70%
- DC50 (BRAF V600E): 0.005 to 0.05 µM
- Dmax (BRAF V600E): 35 to 70%
SMILES: COc1cc(N2CC3(CN(CC4CCN(c5ccc(-c6cnc7[nH]cc(C(=O)c8c(F)ccc(NS(=O)(=O)N9CC[C@@H](F)C9)c8F)c7c6)cn5)CC4)C3)C2)cc2c1C(=O)N(C1CCC(=O)NC1=O)C2 (stereo partly drawn) [Compound 133, (3R)-N-[3-(5-{6-[4-({6-[2-(2,6-dioxopiperidin-3-yl)-7-methoxy-1-oxo-2,3-dihydro-1H-isoindol-5-yl]-2,6-diazaspiro[3.3]heptan-2-yl}methyl)piperidin-1-yl]pyridin-3-yl}-1H-pyrrolo[2,3-b]pyridine-3-carbonyl)-2,4-difluorophenyl]-3-fluoropyrrolidine-1-sulfonamide]

- DC50 (BRAF G466V): < 0.001 µM
- Dmax (BRAF G466V): > 70%
- DC50 (BRAF V600E): 0.005 to 0.05 µM
- Dmax (BRAF V600E): 35 to 70%
SMILES: COc1cc(N2CC3(CN(CC4CCN(c5ncc(-c6cnc7[nH]cc(C(=O)c8c(F)ccc(NS(=O)(=O)N9CC[C@@H](F)C9)c8F)c7c6)cn5)CC4)C3)C2)cc2c1C(=O)N(C1CCC(=O)NC1=O)C2 (stereo partly drawn) [Compound 134, (3R)-N-[3-(5-{2-[4-({6-[2-(2,6-dioxopiperidin-3-yl)-7-methoxy-1-oxo-2,3-dihydro-1H-isoindol-5-yl]-2,6-diazaspiro[3.3]heptan-2-yl}methyl)piperidin-1-yl]pyrimidn-5-yl}-1H-pyrrolo[2,3-b]pyridine-3-carbonyl)-2,4-difluorophenyl]-3-fluoropyrrolidine-1-sulfonamide]

- DC50 (BRAF G466V): 0.001 to 0.01 µM
- Dmax (BRAF G466V): > 70%
- DC50 (BRAF V600E): 0.005 to 0.05 µM
- Dmax (BRAF V600E): 35 to 70%
SMILES: O=C1CCC(N2Cc3cc(N4CCN(CCCC5CCN(c6ccc(-c7cnc8[nH]cc(C(=O)c9c(F)ccc(NS(=O)(=O)N%10CC[C@@H](F)C%10)c9F)c8c7)cc6)CC5)CC4)ccc3C2=O)C(=O)N1 (stereo partly drawn) [Compound 135, (3R)-N-[3-(5-{4-[4-(3-{4-[2-(2,6-dioxopiperidin-3-yl)-1-oxo-2,3-dihydro-1H-isoindol-5-yl]piperazin-1-yl}propyl)piperidin-1-yl]phenyl}-1H-pyrrolo[2,3-b]pyridine-3-carbonyl)-2,4-difluorophenyl]-3-fluoropyrrolidine-1-sulfonamide]

- DC50 (BRAF G466V): < 0.001 µM
- Dmax (BRAF G466V): 35 to 70%
- DC50 (BRAF V600E): 0.005 to 0.05 µM
- Dmax (BRAF V600E): 35 to 70%
SMILES: O=C1CCN(c2ccc(C3CCN(CC4CCN(c5ccc(-c6cnc7[nH]cc(C(=O)c8c(F)ccc(NS(=O)(=O)N9CC[C@@H](F)C9)c8F)c7c6)cc5)CC4)CC3)cc2F)C(=O)N1 [Compound 140, (3R)-N-[3-(5-{4-[4-({4-[4-(2,4-dioxo-1,3-diazinan-1-yl)-3-fluorophenyl]piperidin-1-yl}methyl)piperidin-1-yl]phenyl}-1H-pyrrolo[2,3-b]pyridine-3-carbonyl)-2,4-difluorophenyl]-3-fluoropyrrolidine-1-sulfonamide]
